These results are taken from DBAASP.

Some test systems named below: Vibrio fluvialis; Escherichia coli; Vibrio anguillarum; Vibrio parahaemolyticus; Staphylococcus aureus; Vibrio alginolyticus; Candida glabrata 090902; Salmonella typhimurium.
What all share (assay): ≥ marks a high value that may be exact or a test limit, other limits are often not marked, values filed in µg/mL are converted to µM
Test [1] has as its system Nocardia asteroides 201118.
In test [2] the test system is Klebsiella pneumoniae 08040724.
Test [3] relates to Staphylococcus aureus ATCC 25923.
Test [4] has as its system Enterococcus faecalis 981.
The subject of test [5] is Enterobacter cloacae CGMCC 1.57.
In test [6] the test system is Enterococcus faecium 091299.
The subject of test [7] is Escherichia coli ATCC 25922.
Test [8] deals with Psychrobacter faecalis X29.
For test [9], the system named is Candida albicans ATCC 10231.
The subject of test [10] is Staphylococcus epidermidis.
The subject of test [11] is Staphylococcus aureus A170.
The test system of test [12] is Salmonella enterica subsp. enterica serovar Typhimurium ATCC 14028.
Test [13] concerns Pseudomonas aeruginosa Pa4-SA2.
Test [14] concerns Pseudomonas aeruginosa Pa1-SA2.
In test [15] the test system is Pseudomonas aeruginosa PA006.
Test [16] has as its system Klebsiella pneumoniae ATCC 700603.
For test [17], the system named is Pseudomonas aeruginosa ATCC 27853.
Test [18] has as its system Staphylococcus aureus ATCC 29313.
The test system of test [19] is Pseudomonas aeruginosa PAO1.

As a reminder, the MIC is the smallest concentration in the dilution series that meets the test's criterion for growth inhibition. Higher therefore signals a need for much substance.

≈ marks a conversion by molar mass, not a printed value.

As to `CSCC[C@H](NC(=O)[C@H](CO)NC(=O)[C@H](CC(C)C)NC(=O)[C@H](Cc1cnc[nH]1)NC(=O)[C@H](CO)NC(=O)[C@@H](N)CCC(N)=O)C(=O)N[C@H]1CSSC[C@@H](C(=O)N[C@@H](CCCCN)C(=O)N[C@@H](Cc2ccccc2)C(=O)O)NC(=O)[C@@H]2CSSC[C@@H]3NC(=O)[C@@H]4CSSC[C@H](NC(=O)[C@H](Cc5ccc(O)cc5)NC(=O)[C@H](CCCN=C(N)N)NC1=O)C(=O)N[C@@H](CSSC[C@H](NC(=O)CNC(=O)[C@H](CCCCN)NC(=O)[C@H](CC(N)=O)NC(=O)[C@H](CC(N)=O)NC(=O)[C@H](CCCN=C(N)N)NC3=O)C(=O)NCC(=O)N[C@@H](Cc1ccccc1)C(=O)N2)C(=O)N[C@@H](CC(N)=O)C(=O)N4` [QSHLSMCRYCCNCCRNNKGCGFCCKF], the MIC against Vibrio fluvialis was 25 µM (≈ 75 µg/mL); against Escherichia coli, 50 µM (≈ 150 µg/mL); with Vibrio anguillarum, at least 50 µM; in the test on Vibrio parahaemolyticus, at least 50 µM; against Staphylococcus aureus it was 50 µM (≈ 150 µg/mL); against Vibrio alginolyticus, at least 50 µM.
As for `CC[C@H](C)[C@H](NC(=O)CNC(=O)[C@@H](NC(=O)[C@H](C)NC(=O)[C@H](C)NC(=O)[C@H](CCCCN)NC(=O)[C@@H](NC(=O)[C@H](CC(C)C)NC(=O)CNC(=O)[C@@H]1CCCN1C(=O)[C@H](CC(C)C)NC(=O)[C@@H](N)Cc1ccccc1)[C@@H](C)CC)C(C)C)C(=O)NCC(=O)N[C@@H](CO)C(=O)N[C@H](C(=O)N[C@H](C(=O)N[C@@H](Cc1ccccc1)C(=O)N[C@H]1CSSC[C@@H](C(=O)O)NC(=O)[C@H](CCCCN)NC(=O)[C@H](CCCCN)NC(=O)[C@H](CO)NC(=O)[C@H]([C@@H](C)CC)NC(=O)[C@H](CCCCN)NC1=O)[C@@H](C)CC)[C@@H](C)O` [FLPGLIKAAVGIGSTIFCKISKKC], the MIC is 3.1 µM (≈ 7.73 µg/mL) in [1]; at least 100 µM in test [2]; 6.3 µM (≈ 15.7 µg/mL) in test [3]; 3.1 µM (≈ 7.73 µg/mL) in test [4]; 6.3 µM (≈ 15.7 µg/mL) with Candida glabrata 090902; at least 100 µM in test [5]. For the same molecule, the MIC in [6] was at least 100 µM; in [7], 100 µM (≈ 249 µg/mL); in [8], 25 µM (≈ 62.3 µg/mL); in test [9], 50 µM (≈ 125 µg/mL).
For `CC[C@H](C)[C@H](NC(=O)[C@@H]1CCCN1C(=O)[C@H](CC(C)C)NC(=O)[C@@H](N)CC(C)C)C(=O)N[C@H](C(=O)NCC(=O)N[C@@H](CC(N)=O)C(=O)N[C@@H](CC(C)C)C(=O)N[C@@H](CC(C)C)C(=O)N[C@@H](CCCCN)C(=O)N[C@@H](CO)C(=O)N[C@@H](CC(C)C)C(=O)N[C@@H](CC(C)C)C(=O)O)C(C)C` [LLPIVGNLLKSLL], the minimum inhibitory concentration (MIC) in test [10] was 21.5 µM (≈ 30 µg/mL); in the test with Escherichia coli, above 71.8 µM; in the test with Salmonella typhimurium it was at least 71.8 µM; in test [11], 17.9 µM (≈ 25 µg/mL).
As to `CC[C@H](C)[C@H](NC(=O)[C@H](CCCCN)NC(=O)CNC(=O)[C@H](CCSC)NC(=O)[C@H](C)NC(=O)[C@H](Cc1cnc[nH]1)NC(=O)[C@H](C)NC(=O)[C@@H](NC(=O)[C@H](CC(C)C)NC(=O)[C@H](CCC(N)=O)NC(=O)[C@H](CCCN=C(N)N)NC(=O)CNC(=O)[C@H](C)NC(=O)[C@H](CC(=O)O)NC(=O)[C@H](CCCCN)NC(=O)[C@@H](NC(=O)[C@@H](NC(=O)[C@H](CC(=O)O)NC(=O)[C@H](Cc1ccccc1)NC(=O)[C@@H](NC(=O)CN)C(C)C)[C@@H](C)CC)[C@@H](C)CC)C(C)C)C(=O)N[C@@H](C)C(=O)N[C@@H](CCC(=O)O)C(=O)N[C@@H](CCCCN)C(=O)N[C@H](C(N)=O)C(C)C` [GVFDIIKDAGRQLVAHAMGKIAEKV], the MIC in [12] was above 300 µM; in [13], at least 48 µM; in [14], at least 96 µM; in [15] it was 12 µM (≈ 32 µg/mL); in test [16] it was above 300 µM; in [17], above 192 µM. Also, the MIC in test [18] was at least 300 µM; in test [19] it was 192 µM (≈ 512 µg/mL); in test [7], 300 µM (≈ 800 µg/mL).
